In ChEMBL document CHEMBL1240307, “A functional genomics approach to the mode of action of apratoxin A” (Nat Chem Biol, 2006):

Key:
HT-29 [1] = assay: Antitumor activity against human HT-29 cells assessed as down-regulation of RAB11B mRNA expression at 10 nM after 6 hrs relative to control; format: functional
U2OS [2] = assay: Cell cycle arrest in human U2OS cells assessed as accumulation at S phase at 50 nM after 24 hrs by FACS analysis (reference value: 37.3%); format: functional
T47D = assay: Cytotoxicity against human T47D cells by sulforhodamine B assay; format: functional
HT-29 [3] = assay: Antitumor activity against human HT-29 cells assessed as upregulation of RASSF4 mRNA expression at 2 nM after 3 hrs relative to control; format: functional
DU-145 = assay: Cytotoxicity against human DU145 cells by sulforhodamine B assay; format: functional
HOP-62 = assay: Cytotoxicity against human HOP62 cells by sulforhodamine B assay; format: functional
HT-29 [4] = assay: Antitumor activity against human HT-29 cells assessed as down-regulation of CCNE2 mRNA expression at 2 nM after 12 hrs relative to control; format: functional
K562 = assay: Cytotoxicity against human K562 cells by sulforhodamine B assay; format: functional
MDA-MB-231 = assay: Cytotoxicity against human MDA-MB-231 cells by sulforhodamine B assay; format: functional
U2OS [5] = assay: Cell cycle arrest in human U2OS cells overexpressing mouse Fgfr1 assessed as accumulation at S phase at 15 nM after 48 hrs by CMV-GFP reporter assay method (reference value: 33%); format: functional
A549 = assay: Cytotoxicity against human A549 cells by sulforhodamine B assay; format: functional
NCI/ADR-RES = assay: Cytotoxicity against human NCI/ADR-RES cells by sulforhodamine B assay; format: functional
U2OS [6] = assay: Cell cycle arrest in human U2OS cells assessed as accumulation at G1 phase at 50 nM after 48 hrs by FACS analysis (reference value: 49.8%); format: functional
HT-29 [7] = assay: Antitumor activity against human HT-29 cells assessed as upregulation of KCNK10 mRNA expression at 10 nM after 12 hrs relative to control; format: functional
COLO 205 = assay: Cytotoxicity against human COLO205 cells by sulforhodamine B assay; format: functional
HT-29 [8] = assay: Antitumor activity against human HT-29 cells assessed as upregulation of RASSF4 mRNA expression at 2 nM after 12 hrs relative to control; format: functional
U2OS [9] = assay: Antiproliferative activity against human U2OS cells expressing constitutively active Stat3 mutant after 48 hrs by CMV-GFP reporter assay method; format: functional, cell-based
MCF7 = assay: Cytotoxicity against human MCF7 cells by sulforhodamine B assay; format: functional
HT-29 [10] = assay: Antitumor activity against human HT-29 cells assessed as upregulation of HSPA1A mRNA expression at 10 nM after 3 hrs relative to control; format: functional
HT-29 [11] = assay: Antitumor activity against human HT-29 cells assessed as upregulation of RASSF4 mRNA expression at 10 nM after 6 hrs relative to control; format: functional
HT-29 [12] = assay: Antitumor activity against human HT-29 cells assessed as upregulation of RASSF4 mRNA expression at 10 nM after 3 hrs relative to control; format: functional
HT-29 [13] = assay: Antitumor activity against human HT-29 cells assessed as down-regulation of CDC25A mRNA expression at 2 nM after 6 hrs relative to control; format: functional
HT-29 [14] = assay: Antitumor activity against human HT-29 cells assessed as down-regulation of TAL1 mRNA expression at 2 nM after 12 hrs relative to control; format: functional
HT-29 [15] = assay: Antitumor activity against human HT-29 cells assessed as down-regulation of RAB11B mRNA expression at 10 nM after 3 hrs relative to control; format: functional
U2OS [16] = assay: Cell cycle arrest in human U2OS cells assessed as accumulation at S phase at 5 nM after 24 hrs by FACS analysis (reference value: 37.3%); format: functional
HT-29 [17] = assay: Antitumor activity against human HT-29 cells assessed as down-regulation of GTSE1 mRNA expression at 10 nM after 3 hrs relative to control; format: functional
SF-295 = assay: Cytotoxicity against human SF295 cells by sulforhodamine B assay; format: functional
HT-29 [18] = assay: Antitumor activity against human HT-29 cells assessed as upregulation of HSPA1A mRNA expression at 10 nM after 12 hrs relative to control; format: functional
UACC-257 = assay: Cytotoxicity against human UACC257 cells by sulforhodamine B assay; format: functional
HT-29 [19] = assay: Antitumor activity against human HT-29 cells assessed as upregulation of DDIT4 mRNA expression at 2 nM after 3 hrs relative to control; format: functional
HT-29 [20] = assay: Antitumor activity against human HT-29 cells assessed as down-regulation of TAL1 mRNA expression at 10 nM after 3 hrs relative to control; format: functional
HOP-92 = assay: Cytotoxicity against human HOP92 cells by sulforhodamine B assay; format: functional
LOX IMVI = assay: Cytotoxicity against human LOXIMVI cells by sulforhodamine B assay; format: functional
SW-620 = assay: Cytotoxicity against human SW620 cells by sulforhodamine B assay; format: functional
HT-29 [21] = assay: Antitumor activity against human HT-29 cells assessed as down-regulation of GTSE1 mRNA expression at 2 nM after 12 hrs relative to control; format: functional
KM12 = assay: Cytotoxicity against human KM12 cells by sulforhodamine B assay; format: functional
HT-29 [22] = assay: Antitumor activity against human HT-29 cells assessed as upregulation of KCNK10 mRNA expression at 2 nM after 6 hrs relative to control; format: functional
HT-29 [23] = assay: Antitumor activity against human HT-29 cells assessed as upregulation of MGC4504 mRNA expression at 10 nM after 12 hrs relative to control; format: functional
NCI-H226 = assay: Cytotoxicity against human NCI-H226 cells by sulforhodamine B assay; format: functional
HT-29 [24] = assay: Antitumor activity against human HT-29 cells assessed as upregulation of DDIT4 mRNA expression at 10 nM after 6 hrs relative to control; format: functional
SK-MEL-2 = assay: Cytotoxicity against human SK-MEL-2 cells by sulforhodamine B assay; format: functional
HT-29 [25] = assay: Antitumor activity against human HT-29 cells assessed as down-regulation of RAB11B mRNA expression at 2 nM after 3 hrs relative to control; format: functional
HT-29 [26] = assay: Antitumor activity against human HT-29 cells assessed as upregulation of DDIT4 mRNA expression at 2 nM after 12 hrs relative to control; format: functional
U2OS [27] = assay: Cell cycle arrest in human U2OS cells assessed as accumulation at G1 phase at 5 nM after 24 hrs by FACS analysis (reference value: 49.8%); format: functional
HT-29 [28] = assay: Antitumor activity against human HT-29 cells assessed as upregulation of HSPA1A mRNA expression at 2 nM after 3 hrs relative to control; format: functional
IGROV-1 = assay: Cytotoxicity against human IGROV1 cells by sulforhodamine B assay; format: functional
PC-3 = assay: Cytotoxicity against human PC3 cells by sulforhodamine B assay; format: functional
U2OS [29] = assay: Cell cycle arrest in human U2OS cells assessed as accumulation at S phase at 5 nM after 48 hrs by FACS analysis (reference value: 37.3%); format: functional
[30] = read-out: LC50 (the source's name)

Question: Which “fold change (FC)” value (HT-29 [1]) does the source give for `CC[C@H](C)[C@H]1C(=O)N2CCC[C@H]2C(=O)O[C@H](C(C)(C)C)C[C@@H](C)C[C@H](O)[C@H](C)C2=N[C@@H](/C=C(\C)C(=O)N[C@@H](Cc3ccc(OC)cc3)C(=O)N(C)[C@@H](C)C(=O)N1C)CS2` [APRATOXIN A] here?
Answer: The value was “<=2”.

Question: And the inhibition at 0.05 µM (U2OS [2])?
Answer: Its inhibition at 0.05 µM is 22.6%.

Question: What about the GI50 (T47D) of the same compound?
Answer: Its GI50 is 3.63 nM.

Question: And the “fold change (FC)” value (HT-29 [3])?
Answer: Its value is 12.65.

Question: What about the GI50 (DU-145) of the same compound?
Answer: The GI50 was 10.3 nM.

Question: What about the GI50 (HOP-62) of the same compound?
Answer: Its GI50 is 7.68 nM.

Question: And the “fold change (FC)” value (HT-29 [4])?
Answer: Its value is “<=2”.

Question: And the GI50 (K562)?
Answer: The GI50 was 14.8 nM.

Question: And the GI50 (MDA-MB-231)?
Answer: Its GI50 is 1.46 nM.

Question: And the inhibition at 0.015 µM (U2OS [5])?
Answer: Its inhibition at 0.015 µM is 28%.

Question: What about the GI50 (A549) of the same compound?
Answer: The GI50 was 5.38 nM.

Question: What about the GI50 (NCI/ADR-RES) of the same compound?
Answer: Its GI50 is 15.3 nM.

Question: And the inhibition at 0.05 µM (U2OS [6])?
Answer: The inhibition at 0.05 µM was 50.2%.

Question: And the “fold change (FC)” value (HT-29 [7])?
Answer: Its value is “<=2”.

Question: What about the GI50 (COLO 205) of the same compound?
Answer: Its GI50 is 2.71 nM.

Question: And the “fold change (FC)” value (HT-29 [8])?
Answer: The value was “<=2”.

Question: What about the IC50 (U2OS [9]) of the same compound?
Answer: Its IC50 is 50 nM.

Question: And the GI50 (MCF7)?
Answer: The GI50 was 6.57 nM.

Question: What about the “fold change (FC)” value (HT-29 [10]) of the same compound?
Answer: Its value is 2.21.

Question: And the “fold change (FC)” value (HT-29 [11])?
Answer: The value was “<=2”.

Question: What about the “fold change (FC)” value (HT-29 [12]) of the same compound?
Answer: The value was “<=2”.

Question: And the “fold change (FC)” value (HT-29 [13])?
Answer: The value was “<=2”.

Question: And the “fold change (FC)” value (HT-29 [14])?
Answer: The value was “<=2”.

Question: What about the “fold change (FC)” value (HT-29 [15]) of the same compound?
Answer: The value was “<=2”.

Question: And the inhibition at 0.005 µM (U2OS [16])?
Answer: Its inhibition at 0.005 µM is 28.2%.

Question: And the “fold change (FC)” value (HT-29 [17])?
Answer: Its value is “<=2”.

Question: What about the GI50 (SF-295) of the same compound?
Answer: The GI50 was 1.26 nM.

Question: And the CC50 (SF-295; [30])?
Answer: Its CC50 is 70.3 nM.

Question: What about the “fold change (FC)” value (HT-29 [18]) of the same compound?
Answer: Its value is “<=2”.

Question: What about the GI50 (UACC-257) of the same compound?
Answer: Its GI50 is 7.15 nM.

Question: And the “fold change (FC)” value (HT-29 [19])?
Answer: The value was 2.49.

Question: And the “fold change (FC)” value (HT-29 [20])?
Answer: Its value is “<=2”.

Question: What about the GI50 (HOP-92) of the same compound?
Answer: Its GI50 is 3.09 nM.

Question: What about the GI50 (LOX IMVI) of the same compound?
Answer: The GI50 was 2.3 nM.

Question: And the CC50 (LOX IMVI; [30])?
Answer: Its CC50 is 23.2 nM.

Question: And the GI50 (SW-620)?
Answer: The GI50 was 3.16 nM.

Question: What about the “fold change (FC)” value (HT-29 [21]) of the same compound?
Answer: The value was “<=2”.

Question: And the GI50 (KM12)?
Answer: The GI50 was 3.52 nM.

Question: And the “fold change (FC)” value (HT-29 [22])?
Answer: Its value is 6.35.

Question: What about the “fold change (FC)” value (HT-29 [23]) of the same compound?
Answer: Its value is 12.09.

Question: What about the GI50 (NCI-H226) of the same compound?
Answer: The GI50 was 1.31 nM.

Question: And the “fold change (FC)” value (HT-29 [24])?
Answer: The value was 16.18.

Question: And the GI50 (SK-MEL-2)?
Answer: The GI50 was greater than 100 nM.

Question: What about the “fold change (FC)” value (HT-29 [25]) of the same compound?
Answer: The value was -3.68.

Question: What about the “fold change (FC)” value (HT-29 [26]) of the same compound?
Answer: The value was 3.78.

Question: What about the inhibition at 0.005 µM (U2OS [27]) of the same compound?
Answer: The inhibition at 0.005 µM was 61.6%.

Question: What about the “fold change (FC)” value (HT-29 [28]) of the same compound?
Answer: Its value is “<=2”.

Question: And the GI50 (IGROV-1)?
Answer: Its GI50 is 0.742 nM.

Question: What about the GI50 (PC-3) of the same compound?
Answer: The GI50 was 4.96 nM.

Question: And the inhibition at 0.005 µM (U2OS [29])?
Answer: Its inhibition at 0.005 µM is 5.5%.
